Assay [1] deals with CD1c self-reactive T cells. The assay can be described thus: T cell activation assay with lipid-pulsed CD1c+ APCs (GM-CSF and/or IFN-γ release, ELISA). The class given is cell-based, human. To be noted: same T cells; data not shown. The method, then:
T cell activation assays were performed by co-culturing the indicated numbers of target cells (5x10^4/well unless otherwise indicated) with T cells (5x10^4/well) in 200µl volume in duplicate or triplicate cultures. In some experiments, mouse anti-CD1c (L161, Abcam) or mouse IgG1 isotype control mAbs were added and incubated for 30 min prior to the addition of T cells. Supernatants were collected after 24-48 hours and cytokines released by T cells (GM-CSF and/or IFN-γ) were measured by ELISA. In assays using fractionated lipids, THP1-CD1c cells (5x10^4/well) were fixed with 0.05% glutaraldehyde for 20 s and used as APCs. Fold change in cytokine release was calculated using the following formula: GM-CSF release with lipid pulsed APC / GM-CSF release with un-pulsed APC. In some experiments, normal B cells purified from PBMCs (5x10^4/well) were used as APCs without prior fixation. APCs were pulsed with lipids for 4 hours at the indicated dilutions before addition of T cells.

For assay [2], the system named is CD1c self-reactive T cells. Kind of assay: sCD1c-plate-bound T cell activation assay. It counts as cell-based, human. Conditions: CD1c self-reactive clones DN4.99, K34A27f; GM-CSF release; Fig. 1E, 3 C. On the procedure: sCD1c-plate-bound assays were performed using MaxiSorp plates (Nunc) coated with anti-BirA mAb (Nowbakht et al., 2005) to capture sCD1c and were then incubated with lipids for 6 hours. The wells were extensively washed before addition of T cells.
Recombinant soluble human CD1c tagged with BirA peptide (sCD1c), was obtained and purified using techniques similar to those previously described (Garcia-Alles et al., 2006). The following primers were used to PCR amplify the extracellular domain of human CD1c: forward XhoI 5'- […] (SEQ ID No. 3) and reverse ClaI 5'-[…] (SEQ ID No. 4). sCD1c was purified from J558-transfected cell culture supernatants by affinity chromatography using anti-CD1c mAb (10C3, BD Pharmingen).

Regarding lysophosphatidic acid [LPA], the “doses at which T cells were very weakly stimulated” value (“doses” below) in assay [1] is “above 50 µg/ml”.

As for lysophosphatidylethanolamine [LPE], in assay [1], the “doses” value is listed as “above 50 µg/ml”. In the case of sulfatide, the “stimulation of T cells by lipid presented by plastic-bound sCD1c” value in assay [2] is reported as “failed to stimulate”. lysophosphatidylcholine [LPC]: the “doses” value in assay [1] is given as “above 50 µg/ml”.
